Patent US9540377B2, “2,6,7,8 substituted purines as HDM2 inhibitors” (Merck Sharp & Dohme Corp., priority 2013, dated 2017)
Where two headings read alike, the source gives them in different places.

Tests used:
HDM2 = HDM2 (Homo sapiens (Human), UniProt Q00987); assay: FRET assay (FRET IC50 of Tables 1-11); format: binding
[1] = target: HDM2 (truncated, residues 17 to 125, containing p53 binding surface) (Homo sapiens (Human), UniProt Q00987); assay: HDM2 FRET assay (inhibition of binding of FITC labeled p53-site peptide to HDM2)
Description: IC50 DETERMINATIONS: Dose-response curves were plotted from the inhibition data, from 10 point serial dilutions of inhibitory compounds. Concentration of compound was plotted against em520/Cem495 ratio signal. To generate IC50 values, the dose-response curves were fitted to a standard sigmoidal curve and IC50 values were derived by nonlinear regression analysis.

Sequence of HDM2 (Q00987 17-125): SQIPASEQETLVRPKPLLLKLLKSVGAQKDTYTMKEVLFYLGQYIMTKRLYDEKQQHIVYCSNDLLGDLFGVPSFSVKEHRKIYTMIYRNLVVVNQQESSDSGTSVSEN
Sequence of HDM2 (truncated, residues 17 to 125, containing p53 binding surface) (Q00987 17-125): as above

Compound	IC50 ([1]; Table 23) [nM]	also measured
6-{[(1R)-1-cyclopropylethyl]ammo}-8-phenyl-7-[4-(trifluoromethyl)benzyl]-7H-purine-2-carboxylic acid [Example 1.96]	–	IC50 (HDM2): 371 nM
COC(C)(c1cccc(Cl)c1F)c1nc2nc(-c3n[nH]c(=O)o3)nc(-c3cncc(Cl)c3)c2n1C[C@H]1CC[C@H](C)CC1 (single isomer, unassigned) [Example 23.73, 5-{8-[1-(3-chloro-2-fluorophenyl)-1-methoxyethyl]-6-(5-chloropyridin-3-yl)-7-[(trans-4-methylcyclohexyl)methyl]-7H-purin-2-yl}-1,3,4-oxadiazol-2(3H)-one]	0.623	–
COC(C)(c1cccc(Cl)c1F)c1nc2nc(-c3n[nH]c(=O)o3)nc(-c3cncc(Cl)c3)c2n1C[C@H]1CC[C@H](C)CC1 (single isomer, unassigned) [Example 23.74, 5-{8-[1-(3-chloro-2-fluorophenyl)-1-methoxyethyl]-6-(5-chloropyridin-3-yl)-7-[(trans-4-methylcyclohexyl)methyl]-7H-purin-2-yl}-1,3,4-oxadiazol-2(3H)-one]	17.8	–
CC(F)(c1c(F)cccc1F)c1nc2nc(-c3n[nH]c(=O)o3)nc(-c3cncc(Cl)c3)c2n1C[C@H]1CC[C@H](C)CC1 (single isomer, unassigned) [Example 23.80, 5-{6-(5-chloropyridin-3-yl)-8-[1-(2,6-difluorophenyl)-1-fluoroethyl]-7-[(trans-4-methylcyclohexyl)methyl]-7H-purin-2-yl}-1,3,4-oxadiazol-2(3H)-one]	10.7	–
CC(F)(c1c(F)cccc1F)c1nc2nc(-c3n[nH]c(=O)o3)nc(-c3cncc(Cl)c3)c2n1C[C@H]1CC[C@H](C)CC1 (single isomer, unassigned) [Example 23.81, 5-{6-(5-chloropyridin-3-yl)-8-[1-(2,6-difluorophenyl)-1-fluoroethyl]-7-[(trans-4-methylcyclohexyl)methyl]-7H-purin-2-yl}-1,3,4-oxadiazol-2(3H)-one]	0.289	–
CC1CCCCC1(F)c1nc2nc(-c3n[nH]c(=O)o3)nc(-c3cncc(Cl)c3)c2n1C[C@H]1CC[C@H](C)CC1 (single isomer, unassigned) [Example 23.82, 5-{6-(5-chloropyridin-3-yl)-8-(1-fluoro-2-methylcyclohexyl)-7-[(trans-4-methylcyclohexyl)methyl]-7H-purin-2-yl}-1,3,4-oxadiazol-2(3H)-one]	7.63	–
CC1CCCCC1(F)c1nc2nc(-c3n[nH]c(=O)o3)nc(-c3cncc(Cl)c3)c2n1C[C@H]1CC[C@H](C)CC1 (single isomer, unassigned) [Example 23.83, 5-{6-(5-chloropyridin-3-yl)-8-(1-fluoro-2-methylcyclohexyl)-7-[(trans-4-methylcyclohexyl)methyl]-7H-purin-2-yl}-1,3,4-oxadiazol-2(3H)-one]	6.31	–
CC(F)(c1ncccc1F)c1nc2nc(-c3n[nH]c(=O)o3)nc(-c3cncc(Cl)c3)c2n1C[C@H]1CC[C@H](C)CC1 (single isomer, unassigned) [Example 23.84, 5-{6-(5-chloropyridin-3-yl)-8-[1-fluoro-1-(3-fluoropyridin-2-yl)ethyl]-7-[(trans-4-methylcyclohexyl)methyl]-7H-purin-2-yl}-1,3,4-oxadiazol-2(3H)-one]	16.5	–
CC(F)(c1ncccc1F)c1nc2nc(-c3n[nH]c(=O)o3)nc(-c3cncc(Cl)c3)c2n1C[C@H]1CC[C@H](C)CC1 (single isomer, unassigned) [Example 23.85, 5-{6-(5-chloropyridin-3-yl)-8-[1-fluoro-1-(3-fluoropyridin-2-yl)ethyl]-7-[(trans-4-methylcyclohexyl)methyl]-7H-purin-2-yl}-1,3,4-oxadiazol-2(3H)-one]	0.359	–
COC(C)(c1ncccc1F)c1nc2nc(-c3n[nH]c(=O)o3)nc(-c3cncc(Cl)c3)c2n1C[C@H]1CC[C@H](C)CC1 (single isomer, unassigned) [Example 23.86, 5-{6-(5-chloropyridin-3-yl)-8-[1-(3-fluoropyridin-2-yl)-1-methoxyethyl]-7-[(trans-4-methylcyclohexyl)methyl]-7H-purin-2-yl}-1,3,4-oxadiazol-2(3H)-one]	0.675	–
COC(C)(c1ncccc1F)c1nc2nc(-c3n[nH]c(=O)o3)nc(-c3cncc(Cl)c3)c2n1C[C@H]1CC[C@H](C)CC1 (single isomer, unassigned) [Example 23.87, 5-{6-(5-chloropyridin-3-yl)-8-[1-(3-fluoropyridin-2-yl)-1-methoxyethyl]-7-[(trans-4-methylcyclohexyl)methyl]-7H-purin-2-yl}-1,3,4-oxadiazol-2(3H)-one]	19.6	–
COC(C)(c1c(F)cccc1F)c1nc2nc(-c3n[nH]c(=O)o3)nc(-c3cncc(Cl)c3)c2n1C[C@H]1CC[C@H](C)CC1 (single isomer, unassigned) [Example 23.88, 5-{6-(5-chloropyridin-3-yl)-8-[1-(2,6-difluorophenyl)-1-methoxyethyl]-7-[(trans-4-methylcyclohexyl)methyl]-7H-purin-2-yl}-1,3,4-oxadiazol-2(3H)-one]	0.598	–
COC(C)(c1c(F)cccc1F)c1nc2nc(-c3n[nH]c(=O)o3)nc(-c3cncc(Cl)c3)c2n1C[C@H]1CC[C@H](C)CC1 (single isomer, unassigned) [Example 23.89, 5-{6-(5-chloropyridin-3-yl)-8-[1-(2,6-difluorophenyl)-1-methoxyethyl]-7-[(trans-4-methylcyclohexyl)methyl]-7H-purin-2-yl}-1,3,4-oxadiazol-2(3H)-one]	5.12	–
COC(C)(c1c(F)cccc1F)c1nc2nc(-c3noc(=O)[nH]3)nc(-c3cncc(Cl)c3)c2n1C[C@H]1CC[C@H](C)CC1 (single isomer, unassigned) [Example 23.93, 3-{6-(5-chloropyridin-3-yl)-8-[1-(2,6-difluorophenyl)-1-methoxyethyl]-7-[(trans-4-methylcyclohexyl)methyl]-7H-purin-2-yl}-1,2,4-oxadiazol-5(4H)-one]	0.452	–
CC1COCCC1(F)c1nc2nc(-c3noc(=O)[nH]3)nc(-c3cncc(Cl)c3)c2n1C[C@H]1CC[C@H](C)CC1 (single isomer, unassigned) [Example 23.94, 3-{6-(5-chloropyridin-3-yl)-8-(4-fluoro-3-methyltetrahydro-2H-pyran-4-yl)-7-[(trans-4-methylcyclohexyl)methyl]-7H-purin-2-yl}-1,2,4-oxadiazol-5(4H)-one]	23.4	–
CC1COCCC1(F)c1nc2nc(-c3noc(=O)[nH]3)nc(-c3cncc(Cl)c3)c2n1C[C@H]1CC[C@H](C)CC1 (single isomer, unassigned) [Example 23.95, 3-{6-(5-chloropyridin-3-yl)-8-(4-fluoro-3-methyltetrahydro-2H-pyran-4-yl)-7-[(trans-4-methylcyclohexyl)methyl]-7H-purin-2-yl}-1,2,4-oxadiazol-5(4H)-one]	4.33	–
CC(F)(c1ncccc1F)c1nc2nc(-c3noc(=O)[nH]3)nc(-c3cncc(Cl)c3)c2n1C[C@H]1CC[C@H](C)CC1 (single isomer, unassigned) [Example 23.98, 3-{6-(5-chloropyridin-3-yl)-8-[1-fluoro-1-(3-fluoropyridin-2-yl)ethyl]-7-[(trans-4-methylcyclohexyl)methyl]-7H-purin-2-yl}-1,2,4-oxadiazol-5(4H)-one]	9.74	–
CC(F)(c1ncccc1F)c1nc2nc(-c3noc(=O)[nH]3)nc(-c3cncc(Cl)c3)c2n1C[C@H]1CC[C@H](C)CC1 (single isomer, unassigned) [Example 23.99, 3-{6-(5-chloropyridin-3-yl)-8-[1-fluoro-1-(3-fluoropyridin-2-yl)ethyl]-7-[(trans-4-methylcyclohexyl)methyl]-7H-purin-2-yl}-1,2,4-oxadiazol-5(4H)-one]	0.315	–
CC(C)c1ccnc(-c2nc3nc(-c4noc(=O)[nH]4)nc(N[C@H](C)C4CCC4)c3n2C[C@@H]2CC[C@@H](C)C(F)(F)C2)c1 (stereo in doubt) [Example 18.11, 3-(6-(((R)-1-cyclobutylethyl)amino)-7-((trans-3,3-difluoro-4-methylcyclohexyl)methyl)-8-(4-isopropylpyridin-2-yl)-7H-purin-2-yl)-1,2,4-oxadiazol-5(4H)-one]	–	IC50 ([1]; Table 18): 2.79 nM
COc1ccc(C)cc1-c1nc2nc(C(=O)O)nc(N[C@H](C)C3CC3(F)F)c2n1Cc1ccc(C(F)(F)F)cc1 (stereo partly drawn) [Example 7.19, 6-{[(1R)-1-(2,2-difluorocyclopropyl)ethyl]amino}-8-(2-methoxy-5-methylphenyl)-7-[4-(trifluoromethyl)benzyl]-7H-purine-2-carboxylic acid]	–	IC50 (HDM2): 72.2 nM
C[C@@H](Nc1nc(C(=O)O)nc2nc(N3CCCCC3Cc3ccccc3)n(Cc3ccc(C(F)(F)F)cc3)c12)C1CCC1 (stereo partly drawn) [Example 9.3, 8-(2-benzylpiperidin-1-yl)-6-{[(1R)-1-cyclobutylethyl]amino}-7-[4-(trifluoromethyl)benzyl]-7H-purine-2-carboxylic acid]	–	IC50 (HDM2; Table 9): 20.7 nM
